Laboratory results taken from US10167272B2, “Muscarinic agonists” (Heptares Therapeutics Limited, priority 2015, dated 2019).
pEC50: −log10 of the molar value. Read-outs that look alike come from different tables or passages of the source.

How the values were obtained:
Type in all cases: cell-based
[1] = target: T1, human muscarinic M1 receptor (Homo sapiens, UniProt P11229); test: Alphascreen Surefire phospho-ERK1/2 functional assay, M1; details: phospho-ERK1/2; for EC50: read-out: pEC50 M1 (converted); for Emax: CHO, read-out: % Emax cf. ACh (M1), CHO cells stably expressing human M1
T1 sequence (P11229 1-460): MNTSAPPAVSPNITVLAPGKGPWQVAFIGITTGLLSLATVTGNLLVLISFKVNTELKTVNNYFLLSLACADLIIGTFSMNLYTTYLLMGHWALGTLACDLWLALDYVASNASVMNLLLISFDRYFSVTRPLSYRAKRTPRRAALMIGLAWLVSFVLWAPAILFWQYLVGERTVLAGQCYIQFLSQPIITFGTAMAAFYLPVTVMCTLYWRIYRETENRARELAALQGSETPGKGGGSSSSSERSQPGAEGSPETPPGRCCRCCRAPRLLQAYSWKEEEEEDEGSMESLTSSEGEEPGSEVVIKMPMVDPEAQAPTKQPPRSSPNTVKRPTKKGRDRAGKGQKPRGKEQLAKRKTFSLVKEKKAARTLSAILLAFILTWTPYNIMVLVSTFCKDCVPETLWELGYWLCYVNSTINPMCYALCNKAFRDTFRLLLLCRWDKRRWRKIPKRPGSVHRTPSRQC
Procedure: (§1) ERK1/2 phosphorylation is a downstream consequence of both Gq/11 and Gi/o protein coupled receptor activation, making it highly suitable for the assessment of M1, M3 (Gq/11 coupled) and M2, M4 receptors (Gi/o coupled), rather than using different assay formats for different receptor subtypes. CHO cells stably expressing the human muscarinic M1, M2, M3 or M4 receptor were plated (25K/well) onto 96-well tissue culture plates in MEM-alpha+10% dialysed FBS. Once adhered, cells were serum-starved overnight. Agonist stimulation was performed by the addition of 5 μL agonist to the cells for 5 min (37° C.). Media was removed and 50 μL of lysis buffer added. After 15 min, a 4 μL sample was transferred to 384-well plate and 7 μL of detection mixture added.

[2] = target: T2, human muscarinic M2 receptor (Homo sapiens, UniProt P08172); test: Alphascreen Surefire phospho-ERK1/2 functional assay, M2; details: for EC50: CHO cells stably expressing human M2, read-out: pEC50 M2 (converted); for Emax: CHO, read-out: % Emax cf. ACh (M2), CHO cells stably expressing human M2, relative to ACh
T2 sequence (P08172 1-466): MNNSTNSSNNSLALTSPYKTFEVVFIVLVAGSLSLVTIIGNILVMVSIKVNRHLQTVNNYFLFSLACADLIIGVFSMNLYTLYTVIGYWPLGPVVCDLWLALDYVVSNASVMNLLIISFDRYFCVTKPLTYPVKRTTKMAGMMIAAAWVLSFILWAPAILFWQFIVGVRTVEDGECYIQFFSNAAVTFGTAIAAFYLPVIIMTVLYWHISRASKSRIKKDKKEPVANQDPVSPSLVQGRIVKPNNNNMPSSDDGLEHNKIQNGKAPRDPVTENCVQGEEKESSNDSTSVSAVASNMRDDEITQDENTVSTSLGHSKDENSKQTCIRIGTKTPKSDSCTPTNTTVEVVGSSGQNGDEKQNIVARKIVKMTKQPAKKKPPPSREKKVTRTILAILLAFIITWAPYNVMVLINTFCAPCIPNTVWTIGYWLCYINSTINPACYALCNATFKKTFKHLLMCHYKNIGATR
Procedure: as §1

[3] = target: T3, human muscarinic M3 receptor (Homo sapiens, UniProt P20309); test: Alphascreen Surefire phospho-ERK1/2 functional assay, M3; details: phospho-ERK1/2; for EC50: CHO cells stably expressing human M3, read-out: pEC50 M3 (converted); for Emax: CHO, read-out: % Emax cf. ACh (M3), CHO cells stably expressing human M3, relative to ACh
T3 construct: expressed in transfected cells
Procedure: as §1

[4] = target: T4, human muscarinic M4 receptor (Homo sapiens, UniProt P08173); test: Alphascreen Surefire phospho-ERK1/2 functional assay, M4; details: for EC50: read-out: pEC50 M4 (converted); for Emax: CHO, read-out: % Emax cf. ACh (M4), CHO cells stably expressing human M4; for pEC50: pEC50 M4
T4 construct: expressed in transfected cells
T4 sequence (P08173 1-479): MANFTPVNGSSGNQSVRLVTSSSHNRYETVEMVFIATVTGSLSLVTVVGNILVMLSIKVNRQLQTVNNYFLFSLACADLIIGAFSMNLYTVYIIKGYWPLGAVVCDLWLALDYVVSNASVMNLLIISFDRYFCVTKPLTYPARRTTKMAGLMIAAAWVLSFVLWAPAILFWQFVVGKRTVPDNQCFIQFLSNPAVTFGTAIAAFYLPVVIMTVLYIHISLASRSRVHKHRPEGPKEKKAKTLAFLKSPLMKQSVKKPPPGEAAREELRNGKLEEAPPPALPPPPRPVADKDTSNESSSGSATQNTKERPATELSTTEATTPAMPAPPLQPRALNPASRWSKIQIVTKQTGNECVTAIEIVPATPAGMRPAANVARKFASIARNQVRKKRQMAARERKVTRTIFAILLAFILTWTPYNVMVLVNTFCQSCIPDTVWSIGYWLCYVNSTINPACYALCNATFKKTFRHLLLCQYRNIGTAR

[5] = CHO cells stably expressing human M1
[6] = CHO cells stably expressing human M4, phospho-ERK1/2
[7] = phospho-ERK1/2, relative to ACh

T3 sequence (P20309 whole entry): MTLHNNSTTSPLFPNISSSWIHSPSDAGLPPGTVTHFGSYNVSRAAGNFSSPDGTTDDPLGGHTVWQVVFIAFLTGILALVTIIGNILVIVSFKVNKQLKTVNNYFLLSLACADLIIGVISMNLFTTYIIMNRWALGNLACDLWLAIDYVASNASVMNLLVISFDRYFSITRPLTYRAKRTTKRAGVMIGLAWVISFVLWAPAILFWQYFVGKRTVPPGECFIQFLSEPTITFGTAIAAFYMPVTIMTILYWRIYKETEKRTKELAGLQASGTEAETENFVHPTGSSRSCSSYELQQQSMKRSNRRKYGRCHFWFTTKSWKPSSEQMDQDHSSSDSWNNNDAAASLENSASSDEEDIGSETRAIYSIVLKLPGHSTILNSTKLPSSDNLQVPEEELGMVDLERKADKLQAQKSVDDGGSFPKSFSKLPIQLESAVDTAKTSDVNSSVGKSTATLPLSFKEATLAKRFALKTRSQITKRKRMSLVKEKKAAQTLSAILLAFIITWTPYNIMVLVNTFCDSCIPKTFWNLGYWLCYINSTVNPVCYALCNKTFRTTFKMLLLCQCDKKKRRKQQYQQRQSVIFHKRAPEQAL

SMILES	EC50 [1, 5] [nM]	% Emax cf. ACh (M1) ([1]; CHO cells stably expressing human M1, relative to ACh) [%]	EC50 [2] [nM]	Emax [2] [%]	EC50 [3] [nM]	Emax [3] [%]	EC50 [4, 6] [nM]	% Emax cf. ACh (M4) ([4]; CHO cells stably expressing human M4, phospho-ERK1/2, relative to ACh) [%]	Emax ([1]; relative to ACh) [%]	Emax [4, 7] [%]	pEC50 [4]
CCOC(=O)N1CCC2(CC(N3CCC(N(CC4(OC)CCC4)C(C)=O)CC3)C2)C1 (single isomer, unassigned) [2-30 Isomer 2]	100	104	5010	42	> 20000	26	79.4	96			
CCOC(=O)N1CCC2(CC(N3CCC(N(OC)C(C)=O)CC3)C2)C1 (single isomer, unassigned) [2-32 Isomer 2]	2510		> 20000	9	> 20000	5	39.8		82	115	
CCOC(=O)N1CCC2(CC(N3CCC(N(Cc4ccccc4)C(C)=O)CC3)C2)C1 (single isomer, unassigned) [2-35 Isomer 2]	39.8		> 20000	21	> 20000	34	126		85	72	
[2H]C([2H])(C)OC(=O)N1CCC2(CC(N3CCC(N(CC)C(C)=O)CC3)C2)C1 (single isomer, unassigned) [2-38 Isomer 2]	631		> 20000	21	> 20000	1	20		76	115	
CCOC(=O)N1CCC2(CC(N3CCC(N(CC)C(=O)OC)CC3)C2)C1 (single isomer, unassigned) [2-39 Isomer 2]	316		> 20000	12	> 20000	25	25.1		39	126	
CCOC(=O)N1CCC2(CC(N3CCC(N(CC)C(=O)OCC)CC3)C2)C1 (single isomer, unassigned) [2-40 Isomer 2]	501		> 20000	32	> 20000	9	63.1		39	110	
CCOC(=O)N1CCC2(CC(N3CCC(N(CC)CCF)CC3)C2)C1 (single isomer, unassigned) [2-45 Isomer 2]	631		> 20000	9	> 20000	16			30	45	7.20
CCOC(=O)N1CCC2(CC(N3CCC(N(CC)CC(F)F)CC3)C2)C1 (single isomer, unassigned) [2-46 Isomer 2]	316		> 20000	5	> 20000	12			63	98	8.10

The next lines start with results.

EC50 [1, 5] [nM]	% Emax cf. ACh (M1) ([1]; CHO cells stably expressing human M1, relative to ACh) [%]	EC50 [2] [nM]	Emax [2] [%]	EC50 [3] [nM]	Emax [3] [%]	EC50 [4, 6] [nM]	% Emax cf. ACh (M4) ([4]; CHO cells stably expressing human M4, phospho-ERK1/2, relative to ACh) [%]	Emax ([1]; relative to ACh) [%]	Emax [4, 7] [%]	SMILES	pEC50 [4]
316		> 20000	57	> 20000	1	15.8		109	127	CCOC(=O)N1CCC2(CC(N3CCC(N(C(=O)OC)C(C)C)CC3)C2)C1 (single isomer, unassigned) [2-41 Isomer 2]	
1580		> 20000	21	> 20000	39	100		120	112	CCOC(=O)N1CCC2(CC(N3CCC(N(CC(F)(F)F)C(=O)OC)CC3)C2)C1 (single isomer, unassigned) [2-42 Isomer 2]	
398		501	29	1260	63	63.1		113	90	CCOC(=O)N1CCC2(CC(N3CCC(N(C(=O)OC)C4COC4)CC3)C2)C1 (single isomer, unassigned) [2-47 Isomer 2]	
39.8		12600	68	7940	53	39.8		117	75	CCOC(=O)N1CCC2(CC(N3CCC(N(CC(F)(F)F)C4CC4)CC3)C2)C1 (single isomer, unassigned) [2-48 Isomer 2]	
